Test results reported in paper PMC10958001, “THOUSAND-GRAIN WEIGHT 6, which is an IAA-glucose hydrolase, preferentially recognizes the structure of the indole ring” (Scientific Reports, 2024).

How the values were obtained:
[1] = molecular target: T1, TGW6 (THOUSAND-GRAIN WEIGHT 6), IAA-glucose hydrolase (Oryza sativa, UniProt Q69U01); test: […] NMR fragment screening (CPMG R2 filter); type: binding; settings: 298 K
T1 construct: gene Os06g0623700; recombinant; N-terminal Trx-(His)6 tag cleaved with thrombin; E. coli Rosetta-gami 2(DE3); purified
T1 sequence (Q69U01 31-350): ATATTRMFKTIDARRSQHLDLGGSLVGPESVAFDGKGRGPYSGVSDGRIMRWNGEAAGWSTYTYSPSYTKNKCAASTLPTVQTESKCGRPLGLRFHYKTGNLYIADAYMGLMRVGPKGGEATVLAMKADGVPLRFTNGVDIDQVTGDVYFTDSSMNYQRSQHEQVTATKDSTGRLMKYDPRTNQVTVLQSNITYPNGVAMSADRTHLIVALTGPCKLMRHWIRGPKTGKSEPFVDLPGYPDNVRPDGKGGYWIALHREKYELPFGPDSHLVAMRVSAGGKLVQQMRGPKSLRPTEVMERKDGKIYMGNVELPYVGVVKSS

[2] = molecular target: T1, TGW6 (THOUSAND-GRAIN WEIGHT 6), IAA-glucose hydrolase; test: thermal shift (UNCLE, intrinsic Trp fluorescence BCM); type: binding; settings: 27.6 μM TGW6, 55.0 μM ligand, 2 mM CaCl2, pH 7.0
[3] = 10 μM TGW6, 50 μM fragment in mixture

Compound	Tm shift [2]	other results
O=[N+]([O-])c1ccc(OCC2CCCO2)c(F)c1 (stereo not shown) [CK0-00681, 2-[(2-Fluoro-4-nitrophenoxy)methyl]tetrahydrofuran]	–	ΔIntensity (%) ([1]; 10 μM TGW6, 50 μM fragment in mixture, not competitive with IAA-Glc, different site implied): − 100.0
O=[N+]([O-])c1c(F)cccc1N1CCC(O)CC1 [CK0-02991, 1-(3-Fluoro-2-nitrophenyl)piperidin-4-ol]	–	ΔIntensity (%) [1, 3]: − 57.9
O=[N+]([O-])c1ccc(OC2CCOCC2)c(F)c1 [CK0-03011, 4-(2-Fluoro-4-nitrophenoxy)tetrahydro-2H-pyran]	–	ΔIntensity (%) [1, 3]: − 45.4
O=C(O)Cc1c[nH]c2ccccc12 [IAA, indole-3-acetic acid]	> 3 °C	–
C[C@H](NC(=O)Cc1c[nH]c2ccccc12)C(=O)O [IAA-Ala]	~ 10 °C	–
O=C(Cc1c[nH]c2ccccc12)O[C@@H]1O[C@H](CO)[C@@H](O)[C@H](O)[C@H]1O [IAA-Glc, 1-O-indole-3-ylacetyl-β-D-glucose]	~ 5 °C	–
O=C(O)CCCc1c[nH]c2ccccc12 [IBA, indole 3-butyric acid]	> 3 °C	–
COC(=O)Cc1c[nH]c2ccccc12 [MeIAA, methyl indole 3-acetate]	> 3 °C	–
O=C(O)C(c1c[nH]c2ccc(F)cc12)C(F)(F)F (stereo not shown) [PK0-42071, 3,3,3-Trifluoro-2-(5-fluoro-1H-indol-3-yl)propanoic acid]	–	ΔIntensity (%) ([1]; 10 μM TGW6, CF3-containing fragment at 17.5 μM in mixture): − 46.0

More lines, main results first:

Tm shift [2]	Compound	other results
~ 7 °C	O=C(O)Cc1c[nH]c2cccc(F)c12 [PK0-38501, 2-(4-Fluoro-1H-indol-3-yl)acetic acid]	ΔIntensity (%) [1, 3]: − 46.5
~ 9 °C	O=C(O)Cc1c[nH]c2c(F)cccc12 [PK0-38511, 2-(7-Fluoro-1H-indol-3-yl)acetic acid]	ΔIntensity (%) ([1]; 10 μM TGW6, 50 μM fragment in mixture, competitive with IAA-Glc): − 50.3
